Read-outs that look alike come from different tables or passages of the source.
Details: disulfide bond, 20-membered ring, I2/AcOH, ACN/H2O

Molecule `CCCCCCCCCCCCCCCC(=O)N[C@@H](CCC(=O)NCCCC[C@H](NC(=O)C1(NC(=O)[C@H](Cc2ccc3ccccc3c2)NC(=O)[C@H](Cc2ccc(OCCN)cc2)NC(=O)[C@H]2NC(=O)[C@H](CCCCNC(C)=O)NC(=O)[C@H](Cc3c[nH]c4c(C)cccc34)NC(=O)[C@H]([C@@H](C)O)NC(=O)[C@H](CC(N)=O)NC(=O)[C@@H](NC(=O)[C@@H](CCCCNC(=O)COCCOCCNC(=O)COCCOCCNC(=O)CC[C@H](NC(=O)CCCCCCCCCCCCCCC(=O)O)C(=O)O)NC(C)=O)C(C)(C)SSC2(C)C)CCOCC1)C(=O)N[C@@H](CC(N)=O)C(=O)N[C@@H](Cc1cccnc1)C(=O)N(C)CC(N)=O)C(=O)O` has a ring closure, yield after HPLC (from Ac-dLys(PEG2PEG2gEC16OH)-Pen-Asn-Thr-7MeTrp-Lys(Ac)-Pen-AEF-2Nal-THP-Lys(gEC16)-Asn-3Pya-Sar-NH2, 1.62 mM) of 13%.

`CC(=O)NCCCC[C@@H]1NC(=O)[C@H](Cc2c[nH]c3c(C)cccc23)NC(=O)[C@H]([C@@H](C)O)NC(=O)[C@H](CC(N)=O)NC(=O)[C@@H](NC(=O)[C@@H](CCCNC(=N)N)NC(=O)COCCOCCNC(=O)COCCOCCNC(=O)CC[C@H](NC(=O)CCCCCCCCCCCCCCCCC(=O)O)C(=O)O)C(C)(C)SSC(C)(C)[C@@H](C(=O)N[C@@H](Cc2ccc(OCCN)cc2)C(=O)N[C@@H](Cc2ccc3ccccc3c2)C(=O)NC2(C(=O)N[C@@H](CCCCNC(C)=O)C(=O)N[C@@H](CC(N)=O)C(=O)N[C@@H](Cc3cccnc3)C(=O)N(C)CC(N)=O)CCOCC2)NC1=O` showed a ring closure, yield after HPLC (from HOC18gEPEG2PEG2-dArg-Pen-Asn-Thr-7MeTrp-Lys(Ac)-Pen-AEF-2Nal-THP-Lys(Ac)-Asn-3Pya-Sar-NH2, 0.361 mM) of 22%.

In the case of `CC(=O)NCCCC[C@@H]1NC(=O)[C@H](Cc2c[nH]c3c(C)cccc23)NC(=O)[C@H]([C@@H](C)O)NC(=O)[C@H](CC(N)=O)NC(=O)[C@@H](NC(=O)[C@@H](CCCNC(=N)N)NC(C)=O)C(C)(C)SSC(C)(C)[C@@H](C(=O)N[C@@H](Cc2ccc(OCCN)cc2)C(=O)N[C@@H](Cc2ccc3ccccc3c2)C(=O)NC2(C(=O)N[C@@H](CCCCNC(C)=O)C(=O)N[C@@H](CC(N)=O)C(=O)N[C@@H](Cc3cccnc3)C(=O)N(CCOCCOCCNC(=O)COCCOCCNC(=O)CC[C@H](NC(=O)CCCCCCCCCCCCCCCCC(=O)O)C(=O)O)CC(N)=O)CCOCC2)NC1=O`, the ring closure, yield after HPLC (from Ac-dArg-Pen-Asn-Thr-7MeTrp-Lys(Ac)-Pen-AEF-2Nal-THP-Lys(Ac)-Asn-3Pya-N(PEG2PEG2gEC18OH)Gly-NH2, […]) is reported as 19.6%.

“MeCO-k(PEG2PEG2gE(c)C180H)-Pen*-N-T-7MeW-K(Ac)-Pen*-AEF-2Nal-THP—K(Ac)-N-3Pya-Sar-CONH2” gave a ring closure, yield after HPLC (ascorbic acid quench, 0.34 mM) of 20%.

For `CC(=O)NCCCC[C@@H]1NC(=O)[C@H](Cc2c[nH]c3c(C)cccc23)NC(=O)[C@H]([C@@H](C)O)NC(=O)[C@H](CC(N)=O)NC(=O)[C@@H](NC(=O)[C@@H](CCCNC(=N)N)NC(C)=O)C(C)(C)SSC(C)(C)[C@@H](C(=O)N[C@@H](Cc2ccc(OCCNC(=O)COCCOCCNC(=O)COCCOCCNC(=O)CC[C@H](NC(=O)CCCCCCCCCCCCCCCCC(=O)O)C(=O)O)cc2)C(=O)N[C@@H](Cc2ccc3ccccc3c2)C(=O)NC2(C(=O)N[C@@H](CCCCNC(C)=O)C(=O)N[C@@H](CC(N)=O)C(=O)N[C@@H](Cc3cccnc3)C(=O)N(C)CC(N)=O)CCOCC2)NC1=O`, the ring closure, yield after HPLC (from Ac-dArg-Pen-Asn-Thr-7MeTrp-Lys(Ac)-Pen-AEF(PEG2PEG2gEC18OH)-2Nal-THP-Lys(Ac)-Asn-3Pya-Sar-NH2, 0.355 mM) was 10%.

In the case of `CC(=O)NCCCC[C@@H]1NC(=O)[C@H](Cc2c[nH]c3c(C)cccc23)NC(=O)[C@H]([C@@H](C)O)NC(=O)[C@H](CC(N)=O)NC(=O)[C@@H](NC(=O)[C@@H](CCCCNC(=O)COCCOCCNC(=O)COCCOCCNC(=O)C[N+](C)(C)CCNC(=O)CC[C@H](NC(=O)CCCCCCCCCCCCCCCCC(=O)O)C(=O)O)NC(C)=O)C(C)(C)SSC(C)(C)[C@@H](C(=O)N[C@@H](Cc2ccc(OCCN)cc2)C(=O)N[C@@H](Cc2ccc3ccccc3c2)C(=O)NC2(C(=O)N[C@@H](CCCCNC(C)=O)C(=O)N[C@@H](CC(N)=O)C(=O)N[C@@H](Cc3cccnc3)C(=O)N(C)CC(N)=O)CCOCC2)NC1=O`, the ring closure, yield after HPLC (from Ac-dLys(PEG2PEG2SP6gEC18OH)-Pen-Asn-Thr-7MeTrp-Lys(Ac)-Pen-AEF-2Nal-THP-Lys(Ac)-Asn-3Pya-Sar-NH2, 0.343 mM) is reported as 35%.

With `CC(=O)NCCCC[C@@H]1NC(=O)[C@H](Cc2c[nH]c3c(C)cccc23)NC(=O)[C@H]([C@@H](C)O)NC(=O)[C@H](CC(N)=O)NC(=O)[C@@H](NC(=O)[C@@H](CCCCNC(=O)COCCOCCNC(=O)COCCOCCNC(=O)CC[C@H](NC(=O)CCCCCCCCCCCCCCCCC(=O)O)C(=O)O)NC(C)=O)C(C)(C)SSC(C)(C)[C@@H](C(=O)N[C@@H](Cc2ccc(OCCN)cc2)C(=O)N[C@@H](Cc2ccc3ccccc3c2)C(=O)NC2(C(=O)N[C@@H](CCCCNC(C)=O)C(=O)N[C@@H](CC(N)=O)C(=O)N[C@@H](Cc3cccnc3)C(=O)N(CC(N)=O)Cc3ccc(C(N)=O)cc3)CCOCC2)NC1=O` the ring closure, yield after HPLC (from Ac-dLys(PEG2PEG2gEC18OH)-Pen-Asn-Thr-7MeTrp-Lys(Ac)-Pen-AEF-2Nal-THP-Lys(Ac)-Asn-3Pya-N(4AmBenzyl)Gly-NH2, 1.72 mM) was 26.8%.

With `CC(=O)NCCCC[C@@H]1NC(=O)[C@H](Cc2c[nH]c3c(C)cccc23)NC(=O)[C@H]([C@@H](C)O)NC(=O)[C@H](CC(N)=O)NC(=O)[C@@H](NC(=O)[C@@H](CCCCNC(=O)COCCOCCNC(=O)COCCOCCNC(=O)CC[C@H](NC(=O)CCCCCCCCCOc2cccc(C(=O)O)c2)C(=O)O)NC(C)=O)C(C)(C)SSC(C)(C)[C@@H](C(=O)N[C@@H](Cc2ccc(OCCN)cc2)C(=O)N[C@@H](Cc2ccc3ccccc3c2)C(=O)NC2(C(=O)N[C@@H](CCCCNC(=O)COCCOCCNC(=O)COCCOCCNC(=O)CC[C@H](NC(=O)CCCCCCCCCOc3cccc(C(=O)O)c3)C(=O)O)C(=O)N[C@@H](CC(N)=O)C(=O)N[C@@H](Cc3cccnc3)C(=O)N(C)CC(N)=O)CCOCC2)NC1=O` the ring closure, yield after HPLC (from Ac-dLys(PEG2PEG2gEmXOH)-Pen-Asn-Thr-7MeTrp-Lys(Ac)-Pen-AEF-2Nal-THP-Lys(PEG2PEG2gEmXOH)-Asn-3Pya-Sar-NH2, […]) was 13%.

Work on `CC(=O)NCCCC[C@@H]1NC(=O)[C@H](Cc2c[nH]c3c(C)cccc23)NC(=O)[C@H]([C@@H](C)O)NC(=O)[C@H](CC(N)=O)NC(=O)[C@@H](NC(=O)[C@@H](CCCNC(=N)N)NC(C)=O)C(C)(C)SSC(C)(C)[C@@H](C(=O)N[C@@H](Cc2ccc(OCCN)cc2)C(=O)N[C@@H](Cc2ccc3ccccc3c2)C(=O)NC2(C(=O)N[C@@H](CCC(=O)O)C(=O)N[C@@H](CC(N)=O)C(=O)N[C@@H](Cc3cccnc3)C(=O)N(C)[C@@H](CCCCNC(=O)COCCOCCNC(=O)COCCOCCNC(=O)CC[C@H](NC(=O)CCCCCCCCCCCCCCCCC(=O)O)C(=O)O)C(N)=O)CCOCC2)NC1=O` yielded a ring closure, yield after HPLC (from Ac-dArg-Pen-Asn-Thr-7MeTrp-Lys(Ac)-Pen-AEF-2Nal-THP-Glu-Asn-3Pya-MeLys(PEG2PEG2gEC18OH)-NH2, […]) of 11%.

`CC(=O)NCCCC[C@@H]1NC(=O)[C@H](Cc2c[nH]c3c(C)cccc23)NC(=O)[C@H]([C@@H](C)O)NC(=O)[C@H](CC(N)=O)NC(=O)[C@@H](NC(C)=O)C(C)(C)SSC(C)(C)[C@@H](C(=O)N[C@@H](Cc2ccc(OCCN)cc2)C(=O)N[C@@H](Cc2ccc3ccccc3c2)C(=O)NC2(C(=O)N[C@@H](CCCCNC(=O)COCCOCCNC(=O)COCCOCCNC(=O)CC[C@H](NC(=O)CCCCCCCCCCCCCCCCC(=O)O)C(=O)O)C(=O)N[C@@H](CC(N)=O)C(=O)N[C@@H](Cc3cccnc3)C(=O)N(C)CC(N)=O)CCOCC2)NC1=O` showed a ring closure, yield after HPLC (from Ac-Pen-Asn-Thr-7MeTrp-Lys(Ac)-Pen-AEF-2Nal-THP-Lys(PEG2PEG2gEC18OH)-Asn-3Pya-Sar-NH2, 0.382 mM) of 24%.

Molecule `CC(=O)NCCCC[C@@H]1NC(=O)[C@H](Cc2c[nH]c3c(C)cccc23)NC(=O)[C@H]([C@@H](C)O)NC(=O)[C@H](CC(N)=O)NC(=O)[C@@H](NC(=O)[C@@H](CCCNC(=N)N)NC(C)=O)C(C)(C)SSC(C)(C)[C@@H](C(=O)N[C@@H](Cc2ccc(OCCN)cc2)C(=O)N[C@@H](Cc2ccc3ccccc3c2)C(=O)NC2(C(=O)N[C@@H](CCC(=O)O)C(=O)N[C@@H](CC(N)=O)C(=O)N[C@@H](Cc3cccnc3)C(=O)N(C)CC(=O)N[C@@H](CCCCNC(=O)COCCOCCNC(=O)COCCOCCNC(=O)CC[C@H](NC(=O)CCCCCCCCCCCCCCCCC(=O)O)C(=O)O)C(N)=O)CCOCC2)NC1=O` has a ring closure, yield after HPLC (from Ac-dArg-Pen-Asn-Thr-Trp(7-Me)-Lys(Ac)-Pen-AEF-2Nal-THP-Glu-Asn-3Pya-Sar-Lys(PEG2PEG2gEC18OH)-NH2, 0.345 mM) of 5%.

With `CC(=O)NCCCC[C@@H]1NC(=O)[C@H](Cc2c[nH]c3c(C)cccc23)NC(=O)[C@H]([C@@H](C)O)NC(=O)[C@H](CC(N)=O)NC(=O)[C@@H](NC(=O)[C@@H](CCCCNC(=O)COCCOCCNC(=O)COCCOCCNC(=O)CC[C@H](NC(=O)CCCCCCCCCCCCCCCCC(=O)O)C(=O)O)NC(C)=O)C(C)(C)SSC(C)(C)[C@@H](C(=O)N[C@@H](Cc2ccc(OCCN)cc2)C(=O)N[C@@H](Cc2ccc3ccccc3c2)C(=O)NC2(C(=O)N[C@@H](CCCCNC(C)=O)C(=O)N[C@@H](CC(N)=O)C(=O)N[C@@H](Cc3cccnc3)C(=O)N(C)CC(N)=O)CCOCC2)NC1=O` the ring closure, yield after HPLC (from Ac-dLys(PEG2PEG2gEC18OH)-Pen-Asn-Thr-7MeTrp-Lys(Ac)-Pen-AEF-2Nal-THP-Lys(Ac)-Asn-3Pya-Sar-NH2, […]) was 28%.

— US12478617B2, “Lipidated peptide inhibitors of interleukin-23 receptor” (JANSSEN BIOTECH, INC., priority 2021, dated 2025)
